PubChem BioAssay (NCI)
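Exposure lasted 48 hours, with cells grown in 96-well plates and compounds tested at five concentrations. Here, GI50 denotes the concentration required for 50% inhibition of growth. TGI is the concentration that stops growth completely.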

Experiments:
Assay in all cases: DTP human tumour cell line panel, 48 h
[1] = tested on: 786-0 renal
[2] = tested on: A498 renal
[3] = tested on: A549 NSCLC
[4] = tested on: ACHN renal
[5] = tested on: CCRF-CEM leukemia
[6] = tested on: COLO 205 colon
[7] = tested on: DLD-1 colon
[8] = tested on: DMS 114 small cell lung
[9] = tested on: DMS 273 small cell lung
[10] = tested on: EKVX NSCLC
[11] = tested on: HCC-2998 colon
[12] = tested on: HCT-116 colon
[13] = tested on: HL-60(TB) leukemia
[14] = tested on: HOP-18 NSCLC
[15] = tested on: HOP-62 NSCLC
[16] = tested on: HOP-92 NSCLC
[17] = tested on: HT29 colon
[18] = tested on: IGROV1 ovarian
[19] = tested on: K-562 leukemia
[20] = tested on: KM12 colon
[21] = tested on: KM20L2 colon
[22] = tested on: LOX IMVI melanoma
[23] = tested on: LXFL 529 NSCLC
[24] = tested on: M19-MEL melanoma
[25] = tested on: MALME-3M melanoma
[26] = tested on: MOLT-4 leukemia
[27] = tested on: NCI-H23 lung
[28] = tested on: NCI-H460 lung
[29] = tested on: NCI-H522 lung
[30] = tested on: OVCAR-3 ovarian
[31] = tested on: OVCAR-5 ovarian
[32] = tested on: OVCAR-8 ovarian
[33] = tested on: RPMI-8226 leukemia
[34] = tested on: RXF 393 renal
[35] = tested on: SF-268 CNS
[36] = tested on: SF-295 CNS
[37] = tested on: SF-539 CNS
[38] = tested on: SK-MEL-2 melanoma
[39] = tested on: SK-MEL-28 melanoma
[40] = tested on: SK-OV-3 ovarian
[41] = tested on: SNB-19 CNS
[42] = tested on: SNB-75 CNS
[43] = tested on: SNB-78 CNS
[44] = tested on: SW-620 colon
[45] = tested on: TK-10 renal
[46] = tested on: U251 CNS
[47] = tested on: UACC-257 melanoma
[48] = tested on: UO-31 renal
[49] = tested on: CAKI-1 renal
[50] = tested on: M14 melanoma
[51] = tested on: NCI-H226 lung
[52] = tested on: OVCAR-4 ovarian
[53] = tested on: SK-MEL-5 melanoma
[54] = tested on: SN12C renal
[55] = tested on: UACC-62 melanoma
[56] = tested on: HCT-15 colon
[57] = tested on: SR leukemia

Cc1ccc2c(c1)C1C(CO2)C(c2ccccc2)=NN1c1ccccc1 (configuration not stated)
TGI [1]: > 100 µM
TGI [2]: > 100 µM
TGI [3]: > 100 µM
TGI [4]: > 100 µM
TGI [5]: > 100 µM
TGI [6]: > 100 µM
TGI [7]: > 100 µM
TGI [8]: > 100 µM
TGI [9]: > 100 µM
TGI [10]: > 100 µM
TGI [11]: > 100 µM
TGI [12]: > 100 µM
TGI [13]: > 100 µM
TGI [14]: > 100 µM
TGI [15]: > 100 µM
TGI [16]: > 100 µM
TGI [17]: > 100 µM
TGI [18]: > 100 µM
TGI [19]: > 100 µM
TGI [20]: > 100 µM
TGI [21]: > 100 µM
TGI [22]: > 100 µM
TGI [23]: > 100 µM
TGI [24]: > 100 µM
TGI [25]: > 100 µM
TGI [26]: > 100 µM
TGI [27]: > 100 µM
TGI [28]: > 100 µM
TGI [29]: > 100 µM
TGI [30]: > 100 µM
TGI [31]: > 100 µM
TGI [32]: > 100 µM
TGI [33]: > 100 µM
TGI [34]: > 100 µM
TGI [35]: > 100 µM
TGI [36]: > 100 µM
TGI [37]: > 100 µM
TGI [38]: > 100 µM
TGI [39]: > 100 µM
TGI [40]: > 100 µM
TGI [41]: > 100 µM
TGI [42]: > 100 µM
TGI [43]: > 100 µM
TGI [44]: > 100 µM
TGI [45]: > 100 µM
TGI [46]: > 100 µM
TGI [47]: > 100 µM
TGI [48]: > 100 µM

N.N.O=P([O-])([O-])CN(CCN(CP(=O)([O-])[O-])CP(=O)([O-])[O-])CP(=O)([O-])[O-].[Pt+2]
GI50 [1]: > 100 µM
TGI [1]: > 100 µM
GI50 [3]: > 100 µM
TGI [3]: > 100 µM
GI50 [4]: > 100 µM
TGI [4]: > 100 µM
GI50 [49]: > 100 µM
TGI [49]: > 100 µM
GI50 [6]: > 100 µM
TGI [6]: > 100 µM
GI50 [10]: > 100 µM
TGI [10]: > 100 µM
GI50 [11]: > 100 µM
TGI [11]: > 100 µM
GI50 [12]: > 100 µM
TGI [12]: > 100 µM
GI50 [13]: > 100 µM
TGI [13]: > 100 µM
GI50 [15]: > 100 µM
TGI [15]: > 100 µM
GI50 [16]: > 100 µM
TGI [16]: > 100 µM
GI50 [17]: > 100 µM
TGI [17]: > 100 µM
GI50 [18]: > 100 µM
TGI [18]: > 100 µM
GI50 [19]: > 100 µM
TGI [19]: > 100 µM
GI50 [20]: > 100 µM
TGI [20]: > 100 µM
GI50 [21]: > 100 µM
TGI [21]: > 100 µM
GI50 [22]: > 100 µM
TGI [22]: > 100 µM
GI50 [50]: > 100 µM
TGI [50]: > 100 µM
GI50 [25]: > 100 µM
TGI [25]: > 100 µM
GI50 [26]: > 100 µM
TGI [26]: > 100 µM
GI50 [51]: > 100 µM
TGI [51]: > 100 µM
GI50 [27]: > 100 µM
TGI [27]: > 100 µM
GI50 [28]: > 100 µM
TGI [28]: > 100 µM
GI50 [30]: > 100 µM
TGI [30]: > 100 µM
GI50 [52]: > 100 µM
TGI [52]: > 100 µM
GI50 [31]: > 100 µM
TGI [31]: > 100 µM
GI50 [32]: > 100 µM
TGI [32]: > 100 µM
GI50 [33]: > 100 µM
TGI [33]: > 100 µM
GI50 [34]: > 100 µM
TGI [34]: > 100 µM
GI50 [35]: > 100 µM
TGI [35]: > 100 µM
GI50 [36]: > 100 µM
TGI [36]: > 100 µM
GI50 [37]: > 100 µM
TGI [37]: > 100 µM
GI50 [38]: > 100 µM
TGI [38]: > 100 µM
GI50 [39]: > 100 µM
TGI [39]: > 100 µM
GI50 [53]: > 100 µM
TGI [53]: > 100 µM
GI50 [40]: > 100 µM
TGI [40]: > 100 µM
GI50 [54]: > 100 µM
TGI [54]: > 100 µM
GI50 [41]: > 100 µM
TGI [41]: > 100 µM
GI50 [44]: > 100 µM
TGI [44]: > 100 µM
GI50 [45]: > 100 µM
TGI [45]: > 100 µM
GI50 [46]: > 100 µM
TGI [46]: > 100 µM
GI50 [47]: > 100 µM
TGI [47]: > 100 µM
GI50 [55]: > 100 µM
TGI [55]: > 100 µM
GI50 [48]: > 100 µM
TGI [48]: > 100 µM

C/C(=N\NS(=O)(=O)c1ccc(C)cc1)c1cc2ccccc2n1C
TGI [1]: > 100 µM
TGI [2]: > 100 µM
TGI [3]: > 100 µM
TGI [4]: > 100 µM
TGI [5]: > 100 µM
TGI [6]: > 100 µM
TGI [7]: > 100 µM
TGI [8]: > 100 µM
TGI [9]: > 100 µM
TGI [10]: > 100 µM
TGI [11]: > 100 µM
TGI [12]: > 100 µM
TGI [56]: > 100 µM
TGI [13]: > 100 µM
TGI [15]: > 100 µM
TGI [17]: > 100 µM
TGI [18]: > 100 µM
TGI [19]: > 100 µM
TGI [20]: > 100 µM
TGI [21]: > 100 µM
TGI [22]: > 100 µM
TGI [23]: > 100 µM
TGI [50]: > 100 µM
TGI [24]: > 100 µM
TGI [25]: > 100 µM
TGI [26]: > 100 µM
TGI [27]: > 100 µM
TGI [28]: > 100 µM
TGI [29]: > 100 µM
TGI [52]: > 100 µM
TGI [32]: > 100 µM
TGI [33]: > 100 µM
TGI [35]: > 100 µM
TGI [36]: > 100 µM
TGI [37]: > 100 µM
TGI [38]: > 100 µM
TGI [53]: > 100 µM
TGI [54]: 57.7 µM
TGI [41]: > 100 µM
TGI [42]: > 100 µM
TGI [57]: > 100 µM
TGI [44]: > 100 µM
TGI [46]: > 100 µM
TGI [47]: > 100 µM
TGI [55]: > 100 µM
TGI [48]: > 100 µM
